Laboratory results from ChEMBL document CHEMBL5226375, “Synthesis and Comprehensive in Vivo Activity Profiling of Olean-12-en-28-ol, 3β-Pentacosanoate in Experimental Autoimmune Encephalomyelitis: A Natural Remyelinating and Anti-Inflammatory Agent” (J Nat Prod, 2023).
Calls of active or inactive are those of the source. No cut-off for these calls is given here.

Tests used:
Mus musculus [1] = assay: Anti-inflammatory activity against MOG35-55-induced experimental autoimmune encephalomyelitis C57BL/6 mouse model assessed as methylation of CpG sites of IL17A gene promoter in brain at 600 mg/kg, ig for 14 days starting from 12th day of immunization by PCR analysis (reference value: 58 +/-6%); assay type: functional; conditions: time 14 day
Mus musculus [2] = assay: Anti-inflammatory activity against MOG35-55-induced experimental autoimmune encephalomyelitis C57BL/6 mouse model assessed as fold change in IL6 gene expression in brain at 600 mg/kg/day, ig for 14 days starting from 12th day of immunization by RT-qPCR analysis relative to control; assay type: functional; conditions: time 14 day
Mus musculus [3] = assay: Anti-inflammatory activity against MOG35-55-induced experimental autoimmune encephalomyelitis C57BL/6 mouse model assessed as methylation of CpG sites of CXCL14 gene promoter in brain at 600 mg/kg, ig for 14 days starting from 12th day of immunization by PCR analysis (reference value: 46.5 +/-6%); assay type: functional; conditions: time 14 day
Mus musculus [4] = assay: Anti-inflammatory activity against MOG35-55-induced experimental autoimmune encephalomyelitis C57BL/6 mouse model assessed as fold change in CXCL9 gene expression in brain at 300 mg/kg/day, ig for 14 days starting from 12th day of immunization by RT-qPCR analysis relative to control; assay type: functional; conditions: time 14 day
Mus musculus [5] = assay: Anti-inflammatory activity against MOG35-55-induced experimental autoimmune encephalomyelitis C57BL/6 mouse model assessed as reduction in serum chemokines level by measuring reduction in CXCL1 level at 600 mg/kg/day, ig for 14 days starting from 12th day of immunization by ELISA; assay type: functional, organism-based; conditions: time 14.0 day
Mus musculus [6] = assay: Anti-inflammatory activity against MOG35-55-induced experimental autoimmune encephalomyelitis C57BL/6 mouse model assessed as fold change in H2EB1 (HLA-DRB1) gene expression in brain at 600 mg/kg/day, ig for 14 days starting from 12th day of immunization by RT-qPCR analysis relative to control; assay type: functional; conditions: time 14 day
[7] = Stability of the compound in THF/phosphate buffer at pH 7.4 incubated for 2 hrs under stirring conditions by 1H-NMR analysis; assay type: physicochemical; conditions: pH 7.4, 2 h
Mus musculus [8] = assay: Anti-inflammatory activity against MOG35-55-induced experimental autoimmune encephalomyelitis C57BL/6 mouse model assessed as fold change in APP gene expression in brain at 600 mg/kg/day, ig for 14 days starting from 12th day of immunization by RT-qPCR analysis relative to control; assay type: functional; conditions: time 14 day
Mus musculus [9] = assay: Anti-inflammatory activity against MOG35-55-induced experimental autoimmune encephalomyelitis C57BL/6 mouse model assessed as reduction in serum chemokines level by measuring reduction in […] level at 600 mg/kg/day, ig for 14 days starting from 12th day of immunization by ELISA; assay type: functional, organism-based; conditions: time 14.0 day
Mus musculus [10] = assay: Anti-inflammatory activity against MOG35-55-induced experimental autoimmune encephalomyelitis C57BL/6 mouse model assessed as fold change in CD4 gene expression in brain at 300 mg/kg/day, ig for 14 days starting from 12th day of immunization by RT-qPCR analysis relative to control; assay type: functional; conditions: time 14 day
Mus musculus [11] = assay: Anti-inflammatory activity against MOG35-55-induced experimental autoimmune encephalomyelitis C57BL/6 mouse model assessed as reduction in serum chemokines level by measuring reduction in CCL5 level at 600 mg/kg/day, ig for 14 days starting from 12th day of immunization by ELISA; assay type: functional, organism-based; conditions: time 14.0 day
Mus musculus [12] = assay: Anti-inflammatory activity against MOG35-55-induced experimental autoimmune encephalomyelitis C57BL/6 mouse model assessed as increase in brain IL-4 level at 600 mg/kg/day, ig for 14 days starting from 12th day of immunization by ELISA; assay type: functional, organism-based; conditions: time 14.0 day
Mus musculus [13] = assay: Anti-inflammatory activity against MOG35-55-induced experimental autoimmune encephalomyelitis C57BL/6 mouse model assessed as fold change in PLP gene expression in brain at 600 mg/kg/day, ig for 14 days starting from 12th day of immunization by RT-qPCR analysis relative to control; assay type: functional; conditions: time 14 day
Mus musculus [14] = assay: Anti-inflammatory activity against MOG35-55-induced experimental autoimmune encephalomyelitis C57BL/6 mouse model assessed as reduction in serum Th1 cytokine level by measuring reduction in IL-2 level at 600 mg/kg/day, ig for 14 days starting from 12th day of immunization by ELISA; assay type: functional, organism-based; conditions: time 14.0 day
Mus musculus [15] = assay: Anti-inflammatory activity against MOG35-55-induced experimental autoimmune encephalomyelitis C57BL/6 mouse model assessed as fold change in CXCL10 gene expression in brain at 0.3 mg/kg/day, ig for 14 days starting from 12th day of immunization by RT-qPCR analysis relative to control; assay type: functional; conditions: time 14 day
Mus musculus [16] = assay: Anti-inflammatory activity against MOG35-55-induced experimental autoimmune encephalomyelitis C57BL/6 mouse model assessed as fold change in MAG gene expression in brain at 0.3 mg/kg/day, ig for 14 days starting from 12th day of immunization by RT-qPCR analysis relative to control; assay type: functional; conditions: time 14 day
Mus musculus [17] = assay: Anti-inflammatory activity against MOG35-55-induced experimental autoimmune encephalomyelitis C57BL/6 mouse model assessed as upregulation of PLP protein expression in brain at 0.15 to 0.3 mg/kg/day, ig for 14 days starting from 12th day of immunization by western blot analysis; assay type: functional, organism-based; conditions: dose 0.15-0.3 mg/kg/day, time 14.0 day
Mus musculus [18] = assay: Anti-inflammatory activity against MOG35-55-induced experimental autoimmune encephalomyelitis C57BL/6 mouse model assessed as upregulation of MBP protein expression in brain at 0.15 to 0.3 mg/kg/day, ig for 14 days starting from 12th day of immunization by western blot analysis; assay type: functional, organism-based; conditions: dose 0.15-0.3 mg/kg/day, time 14.0 day
Mus musculus [19] = assay: Anti-inflammatory activity against MOG35-55-induced experimental autoimmune encephalomyelitis C57BL/6 mouse model assessed as fold change in IL6 gene expression in brain at 0.15 mg/kg/day, ig for 14 days starting from 12th day of immunization by RT-qPCR analysis relative to control; assay type: functional; conditions: time 14 day
Mus musculus [20] = assay: Anti-inflammatory activity against MOG35-55-induced experimental autoimmune encephalomyelitis C57BL/6 mouse model assessed as fold change in PLP gene expression in brain at 0.15 mg/kg/day, ig for 14 days starting from 12th day of immunization by RT-qPCR analysis relative to control; assay type: functional; conditions: time 14 day
Mus musculus [21] = assay: Anti-inflammatory activity against MOG35-55-induced experimental autoimmune encephalomyelitis C57BL/6 mouse model assessed as fold change in PLP gene expression in brain at 0.3 mg/kg/day, ig for 14 days starting from 12th day of immunization by RT-qPCR analysis relative to control; assay type: functional; conditions: time 14 day
Mus musculus [22] = assay: Anti-inflammatory activity against MOG35-55-induced experimental autoimmune encephalomyelitis C57BL/6 mouse model assessed as methylation of CpG sites of IL17A gene promoter in brain at […], ig for 14 days starting from 12th day of immunization by PCR analysis (reference value: 58 +/-6%); assay type: functional; conditions: time 14 day
Mus musculus [23] = assay: Anti-inflammatory activity against MOG35-55-induced experimental autoimmune encephalomyelitis C57BL/6 mouse model assessed as fold change in CCL5 gene expression in brain at 0.3 mg/kg/day, ig for 14 days starting from 12th day of immunization by RT-qPCR analysis relative to control; assay type: functional; conditions: time 14 day

CCCCCCCCCCCCCCCCCCCCCCCCC(=O)O[C@H]1CC[C@]2(C)[C@H]3CC=C4[C@@H]5CC(C)(C)CC[C@]5(CO)CC[C@@]4(C)[C@]3(C)CC[C@H]2C1(C)C
Activity (Mus musculus [1]): 68.3%
fold change (FC) (Mus musculus [2]): -2.32
Activity (Mus musculus [3]): 65.3%
fold change (FC) (Mus musculus [4]): 1.63
Activity (Mus musculus [5]): Active
fold change (FC) (Mus musculus [6]): 11.4
Stability [7]: Stable
fold change (FC) (Mus musculus [8]): 1.28
Activity (Mus musculus [9]): Active
fold change (FC) (Mus musculus [10]): 2.55
Activity (Mus musculus [11]): Active
Activity (Mus musculus [12]): Active
fold change (FC) (Mus musculus [13]): 1.14
Activity (Mus musculus [14]): Active

CCCCCCCCc1ccc(CCC(N)(CO)CO)cc1 [FINGOLIMOD]
fold change (FC) (Mus musculus [15]): 2.17
fold change (FC) (Mus musculus [16]): -3.16
Activity (Mus musculus [17]): inactive
Activity (Mus musculus [18]): inactive
fold change (FC) (Mus musculus [19]): 4.34
fold change (FC) (Mus musculus [20]): 1.54
fold change (FC) (Mus musculus [21]): -2.32
Activity (Mus musculus [22]): 58.9%
fold change (FC) (Mus musculus [23]): -1.06
